Laboratory results taken from US8518947B2, “(Heterocycle/tetrahydropyridine)-(piperazinyl)-1-alcanone and (heterocycle/dihydropyrrolidine)-(piperazinyl)-1-alcanone derivatives, and use thereof as p75 inhibitors” (Sanofi, priority 2009, dated 2013).

Experiments:
[1] = molecular target: T1, p75^NTR receptor (Homo sapiens, UniProt P08138); experiment: Study of the dimerization of the p75NTR receptor independently of its ligand (binding of soluble p75NTR-alkaline phosphatase to SK-N-BE Bep 75 cells); conditions: 1 hour preincubation at 37° C., soluble p75NTR-alkaline phosphatase 10 nM
T1 construct: the clone Bep 75, stably expressing the complete form of the human p75^NTR receptor; expressed in transfected cells; host or cells: SK-N-BE Bep 75 (human neuroblastoma clone stably expressing the receptor); the soluble p75NTR-AP came from the supernatant of transiently transfected HEK293 cells
T1 sequence (P08138 29-427): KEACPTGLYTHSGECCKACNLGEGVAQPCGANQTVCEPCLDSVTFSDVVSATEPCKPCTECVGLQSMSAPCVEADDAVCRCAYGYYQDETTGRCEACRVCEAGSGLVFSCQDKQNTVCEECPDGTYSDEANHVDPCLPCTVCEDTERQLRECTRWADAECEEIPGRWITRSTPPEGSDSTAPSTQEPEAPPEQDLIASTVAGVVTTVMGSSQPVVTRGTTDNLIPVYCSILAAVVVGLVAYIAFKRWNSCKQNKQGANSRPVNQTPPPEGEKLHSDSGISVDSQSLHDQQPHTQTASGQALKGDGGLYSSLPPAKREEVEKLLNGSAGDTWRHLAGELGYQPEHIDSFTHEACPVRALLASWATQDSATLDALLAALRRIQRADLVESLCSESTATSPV
Description: (§1) The SK-N-BE parent strain (human neuroblastoma) and the clone Bep 75, stably expressing the complete form of the human p75^NTR receptor (SK-N-BE Bep 75) are conventionally cultured in an RPMI culture medium containing FCS (5%), sodium pyruvate (1 mM) and glutamine (4 mM). For the SK-N-BE Bep 75 cells, hygromycin (200 μl/20 ml of medium) is added as selection agent.
Study of the Dimerization of the p75^NTR Receptor Independently of its Ligand
The study of the dimerization of the p75^NTR receptor is performed on a cell suspension of the strain SK-N-BE Bep 75. The cells (2.5×10^4 cells/well) are placed in wells (96-well plate) for 24 hours, and then preincubated for 1 hour at 37° C. in the presence or absence of the compounds according to the invention. Supernatent, obtained from a culture of human cells of HEK293 renal origin expressing, after 48 hours of transfection, and secreting a soluble form of the p75^NTR receptor (extracellular part of the receptor) coupled to an alkaline phosphatase, the latter at a final concentration of 10 nM, is then added. The quantification of the specific binding of the soluble receptor to the receptor present on SK-N-BE Bep 75 cells is determined by measuring the enzyme activity of the alkaline phosphatase after incubation of the cells for 1 hour at 37° C. in the presence of the supernatant. After filtering and transferring the filters into 24-well plates, the alkaline phosphatase activity is determined by adding CDP-Star chemoluminescent substrate (ready-to-use, Roche).

[2] = tested on: strains of human neuroblastomas SH-SY-5Y and SK-N-BE Bep 75; experiment: Measurement of the apoptosis (cell death detection ELISA, cytoplasmic histones associated with DNA fragments); type: cell-based; conditions: SH-SY-5Y (48 hours) and SK-N-BE Bep 75 (24 hours), NGF 10 ng/ml or beta-amyloid peptide 10 μM, cell line not stated, read-out: IC50 in the apoptosis test
Description: The SH-SY-5Y strain (human neuroblastoma) is conventionally cultured in a DMEM culture medium (Dulbecco's Modified Eagle's Medium) (Gibco BRL, France) containing FCS (5%) (fetal calf serum) (Boehringer Mannheim, Germany), sodium pyruvate (1 mM) and glutamine (4 mM) in collagen-covered culture flasks (Becton Dickinson, France).
as §1
Measurement of the Apoptosis
The cells (strains of human neuroblastomas SH-SY-5Y and SK-N-BE Bep 75) are placed in Petri dishes 35 mm in diameter (Biocoat collagenl, (10^5 cells/well)) in a suitable culture medium containing 5% FCS, for 24 hours. The culture medium is then removed, the cells are rinsed with PBS (Dulbecco's Phosphate-buffered saline), and then either fresh medium containing 5% FCS, or medium containing NGF (at a concentration of 10 ng/ml), or beta-amyloid peptide (A1β1-40) (at a concentration of 10 μM) is then added, in the presence or absence of the compounds according to the invention. The apoptosis levels are measured 48 hours after the treatments in the case of the strain SH-SY-5Y, and 24 hours later in the case of the strain SK-N-BE Bep 75, by quantifying the cytoplasmic histones associated with the DNA fragments (cell death detection ELISA, Boehringer Mannheim, Germany). The apoptosis levels are expressed as the amount of oligonucleosomes/10^5 cells. Each value corresponds to the average of 9 experimental points distributed over 3 independent experiments.

Structure (SMILES)	IC50 [1] [nM]	IC50 [2] [nM]	melting point [°C]
C[C@@H]1CN(c2ncc(F)cn2)C[C@H](C)N1CC(=O)N1CC=C(c2cccc3ccoc23)CC1 [Compound 36, 1-(4-benzofuran-7-yl-3,6-dihydro-2H-pyridin-1-yl)-2-[(2S,6R)-4-(5-fluoropyrimidin-2-yl)-2,6-dimethylpiperazin-1-yl]ethanone]	20		
CC1CN(c2cnccn2)CC(C)N1CC(=O)N1CC=C(c2cccc3ccsc23)CC1 (centres unmarked) [Compound 1, 1-(4-benzo[b]thiophen-7-yl-3,6-dihydro-2H-pyridin-1-yl)-2-(3,5-dimethyl-2,3,5,6-tetrahydro[1,2′]bipyrazinyl-4-yl)ethanone]	0.08		
C[C@@H]1CN(c2ccc(C(F)(F)F)cn2)[C@@H](C)CN1CC(=O)N1CC=C(c2cccc3ccoc23)CC1 [Compound 14, 1-(4-benzofuran-7-yl-3,6-dihydro-2H-pyridin-1-yl)-2-[(2R,5S)-2,5-dimethyl-4-(5-trifluoromethylpyridin-2-yl)piperazin-1-yl]ethanone]	1.09	1.33	
C[C@@H]1CN(c2ccc(C(F)(F)F)cn2)C[C@H](C)N1CC(=O)N1CC=C(c2cccc3ccoc23)CC1 [Compound 34, 1-(4-benzofuran-7-yl-3,6-dihydro-2H-pyridin-1-yl)-2-[(2S,6R)-2,6-dimethyl-4-(5-trifluoromethylpyridin-2-yl)piperazin-1-yl]ethanone]	0.94	3.39	138 to 139
C[C@@H]1CN(c2ccc3ccccc3n2)C[C@H](C)N1CC(=O)N1CC=C(c2cccc3ccsc23)CC1 [Compound 19, 1-(4-benzo[b]thiophen-7-yl-3,6-dihydro-2H-pyridin-1-yl)-2-((2S,6R)-2,6-dimethyl-4-quinolin-2-ylpiperazin-1-yl)ethanone]		1.07	
Cc1cc2cc(C3=CCN(C(=O)CN4CCN(c5cccc(C(F)(F)F)n5)CC4)CC3)ccc2s1 [Compound 116, 1-[4-(2-methylbenzo[b]thiophen-5-yl)-3,6-dihydro-2H-pyridin-1-yl]-2-[4-(6-trifluoromethylpyridin-2-yl)piperazin-1-yl]ethanone]			121 to 123
C[C@@H]1CN(c2ccc(C(F)(F)F)nc2)C[C@H](C)N1CC(=O)N1CC=C(c2ccc3sccc3c2)CC1 [Compound 47, 1-(4-benzo[b]thiophen-5-yl-3,6-dihydro-2H-pyridin-1-yl)-2-[(2S,6R)-2,6-dimethyl-4-(6-trifluoromethylpyridin-3-yl)piperazin-1-yl)ethanone]			136 to 137
O=C(CN1CCN(c2ccc(C(F)(F)F)cn2)C(=O)C1)N1CC=C(c2c[nH]c3ccccc23)CC1 [Compound 30, 4-{2-[4-(1H-indol-3-yl)-3,6-dihydro-2H-pyridin-1-yl]-2-oxoethyl}-1-(5-trifluoromethylpyridin-2-yl)piperazin-2-one]			230 to 233
